Measurements reported in patent US11597729B2, “Tropomyosin receptor kinase inhibitor, preparation method therefor and use thereof” (JIANGSU VCARE PHARMATECH CO., LTD., priority 2018, dated 2023).

How the values were obtained:
TrkA = TrkA (Homo sapiens, UniProt P04629); experiment: Inhibitory activity test for Trk kinases (γ-33P-ATP isotope test), TrkA; format: biochemical; conditions: 33P-ATP 10 μM, 2 h reaction; read-out: Kinase IC50 TrkA
Protocol: (§1) Inhibitory Activity Test for Trk Kinases
(§2) In this experiment, the γ-^33P-ATP isotope test was used to test the inhibition effect of a compound on kinases TrkA, TrkB and TrkC, and the half maximal inhibitory concentration IC50 of the inhibitory activity of the compound on the enzymes was obtained.
(§3) A compound was dissolved in 100% DMSO to a particular concentration, and then the resulting solution was gradient-diluted by an automatic loading device to different concentrations of the test samples (DMSO dissolving solutions).
(§4) 3.1. The reaction substrate was diluted using the base reaction buffer;
(§5) 3.2. The kinase was added into the substrate solution and mixed gently and uniformly;
(§6) 3.3. The compounds of different concentrations diluted in 100% DMSO were added into the kinase solution using an automatic loading system, and incubated for 20 min at room temperature;
(§7) 3.4. ^33P-ATP (10 μM, 10 μCi/μl) was added at room temperature to initiate the kinase reaction, and the reaction was carried out for 2 h.
(§8) The reaction solution was subjected to an ion exchange filtration system to remove unreacted ATP and the generated ADP ions during the reaction. Then, the radiometric quantity of ^33P isotope in the substrate was detected.
(§9) The kinase activity in the system with the addition of the inhibitors of different concentrations was calculated from the radiometric quantity, to obtain the inhibitory effect of the compounds with different concentrations on the kinase activity. Fitting was performed using graphpad prism to obtain IC50 values of the compounds for inhibition.

TrkB = TrkB (Homo sapiens, UniProt Q16620); experiment: Inhibitory activity test for Trk kinases (γ-33P-ATP isotope test), TrkB; format: biochemical; conditions: 33P-ATP 10 μM, 2 h reaction; read-out: Kinase IC50 TrkB
TrkB, sequence (Q16620 32-822, species assumed): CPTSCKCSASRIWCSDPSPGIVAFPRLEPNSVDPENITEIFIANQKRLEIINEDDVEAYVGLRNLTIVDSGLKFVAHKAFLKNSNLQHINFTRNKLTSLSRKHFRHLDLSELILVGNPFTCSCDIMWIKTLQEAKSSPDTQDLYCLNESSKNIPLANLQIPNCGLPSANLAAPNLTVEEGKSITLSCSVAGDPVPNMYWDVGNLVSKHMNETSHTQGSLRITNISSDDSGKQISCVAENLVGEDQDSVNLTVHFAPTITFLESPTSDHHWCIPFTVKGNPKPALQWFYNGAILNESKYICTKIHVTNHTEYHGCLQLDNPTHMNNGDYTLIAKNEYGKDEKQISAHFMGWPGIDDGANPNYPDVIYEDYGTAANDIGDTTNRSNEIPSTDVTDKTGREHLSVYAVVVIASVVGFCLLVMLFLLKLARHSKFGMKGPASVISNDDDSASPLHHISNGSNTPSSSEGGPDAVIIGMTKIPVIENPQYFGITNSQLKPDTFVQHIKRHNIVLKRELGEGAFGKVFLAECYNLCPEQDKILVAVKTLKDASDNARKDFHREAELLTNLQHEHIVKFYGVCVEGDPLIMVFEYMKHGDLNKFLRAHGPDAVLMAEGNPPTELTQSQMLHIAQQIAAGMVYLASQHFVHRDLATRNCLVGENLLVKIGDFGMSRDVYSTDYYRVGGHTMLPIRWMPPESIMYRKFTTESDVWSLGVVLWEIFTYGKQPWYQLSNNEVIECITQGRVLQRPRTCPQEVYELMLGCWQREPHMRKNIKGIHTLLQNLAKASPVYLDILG
Protocol: as §1, §2, §3, §4, §5, §6, §7, §8, §9

TrkC = TrkC (Homo sapiens, UniProt Q16288); experiment: Inhibitory activity test for Trk kinases (γ-33P-ATP isotope test), TrkC; format: biochemical; conditions: 33P-ATP 10 μM, 2 h reaction; read-out: Kinase IC50 TrkC
TrkC, sequence (Q16288 32-839, species assumed): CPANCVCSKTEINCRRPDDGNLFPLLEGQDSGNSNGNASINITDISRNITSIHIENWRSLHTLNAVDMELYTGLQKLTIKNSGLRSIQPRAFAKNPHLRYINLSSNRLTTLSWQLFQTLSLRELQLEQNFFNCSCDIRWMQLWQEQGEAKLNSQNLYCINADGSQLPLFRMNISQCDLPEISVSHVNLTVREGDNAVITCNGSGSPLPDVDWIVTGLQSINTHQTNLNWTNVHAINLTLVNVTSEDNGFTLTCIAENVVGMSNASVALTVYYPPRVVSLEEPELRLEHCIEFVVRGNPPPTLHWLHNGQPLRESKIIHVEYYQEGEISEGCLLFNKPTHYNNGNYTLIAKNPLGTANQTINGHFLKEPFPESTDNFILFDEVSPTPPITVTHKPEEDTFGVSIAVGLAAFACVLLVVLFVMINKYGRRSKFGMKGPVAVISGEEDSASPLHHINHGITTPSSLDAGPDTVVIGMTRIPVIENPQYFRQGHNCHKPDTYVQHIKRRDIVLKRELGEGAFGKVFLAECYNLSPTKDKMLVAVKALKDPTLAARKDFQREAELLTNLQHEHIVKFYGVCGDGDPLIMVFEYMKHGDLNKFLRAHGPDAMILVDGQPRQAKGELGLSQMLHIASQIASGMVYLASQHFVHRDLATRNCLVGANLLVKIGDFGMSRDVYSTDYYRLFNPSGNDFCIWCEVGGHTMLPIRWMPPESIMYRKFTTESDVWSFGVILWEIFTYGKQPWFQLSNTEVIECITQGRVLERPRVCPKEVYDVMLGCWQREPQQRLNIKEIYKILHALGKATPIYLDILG
Protocol: as §1, §2, §3, §4, §5, §6, §7, §8, §9

BaF3-tel-NTRK1 = experiment: Growth inhibition test, CellTiter-Glo, tel-NTRK1-BaF3 cells; format: cell-based; conditions: 72 hours incubation, read-out: Cell GI50 BaF3-tel-NTRK1
Protocol: (§10) Growth Inhibition Test for Tel-NTRK1-BaF3 and BaF3-LMNA-NTRK1 Cells
(§11) In this experiment, the CellTiter-Glo cell proliferation fluorescence assay was used to test the growth inhibitory effect of a compound on tel-NTRK1-BaF3 and BaF3-LMNA-NTRK1 transgenic cells, and the half maximal growth inhibitory concentration GI50 of the compound on the cells was obtained.
(§12) A compound to be tested was dissolved in DMSO to formulate 10 mM of a mother solution. The mother solution was 3× diluted to 10 mM, 3.333 mM, 1.111 mM, 0.370 mM, 0.123 mM, 0.041 mM, 0.014 mM, 0.005 mM, and 0.002 mM. The prepared solutions were each stored in a 0.5 ml sterilized dorft tube (Corning, USA). In addition, an equal volume of DMSO solvent was used as a blank control. With 10 concentration gradients, the plate was stored in vacuum at −20° C.
The tel-NTRK1-BaF3 and BaF3-LMNA-NTRK1 cell lines were cultured with RPMI 1640 (Corning, N.Y., USA)+10% fetal bovine serum (Gibico, Invitrogen, USA). After the cells were thawed, they were cultured for two generations to be tested.
(§13) Logarithmic growth phase cells (2000-2500 cells/well) were inoculated in a 12×8 96-well white opaque cell culture plate (Corning 3570, NY, USA) in a volume of 100 μL per well, and a drug was added to the cell plate (0.1 μL/well) at the final concentration of the compound of 10 μM, 3.3 μM, 1.1 μM, 0.37 μM, 0.12 IM, 0.04 μM, 0.014 IM, 0.005 μM, and 0.002 μM (0.4 uL of the drug solution was added to 400 ul of the cell homogenate, and then mixed uniformly, and the resulting mixture was added at 100 ul per well). The plate was incubated at 37° C. in a 5% CO2 incubator for 72 hours, and then 20 μL CellTiter-Glo cell proliferation fluorescence assay reagent was added. The plate was allowed to stand for 10 min, and read in the Envision Plate-Reader. […]
A corresponding […] value RLU of each well was obtained by reading in the Envision Plate-reader. […]
The biochemical activity of the compounds of the present invention was determined by the above experiment, and the measured GI50 values are shown in table 2: […]

BaF3-LMNA-NTRK1 = experiment: Growth inhibition test, CellTiter-Glo, BaF3-LMNA-NTRK1 cells; format: cell-based; conditions: 72 hours incubation, read-out: Cell GI50 BaF3-LMNA-NTRK1
Protocol: as §10, §11
as §12, with “In addition, an equal volume of DMSO solvent was used as a blank control. With 10 concentration gradients, the plate was stored in vacuum at −20° C.” left out
as §13, with “added.” for “added. The plate was allowed to stand for 10 min, and read in the Envision Plate-Reader.”

[1] = Metabolic stability in human liver microsomes; format: in vitro ADME
Protocol: Testing on Metabolic Stability of Compounds in Human Liver Microsomes
The total volume of an incubation system was 250 μL, and 50 mmol/L PBS buffer (pH=7.4) was used to prepare incubation solutions of liver microsomes from various species with a protein concentration of 0.5 mg/mL. Before the start of the incubation, 2.5 μL of a 100 μmol/L compound to be tested was mixed with 197.5 μL of the above incubation solution, pre-incubated in a 37° C. water bath for 5 min, and then added with a 50 μL reducing coenzyme II solution (5 mmol/L) that was likewise pre-incubated for 5 min to start the reaction (in the reaction system, the protein content of liver microsomes from various species was 0.5 g/L, and the final concentration of the compound to be tested was 1 μmol/L), incubated in a 37° C. water bath with shaking, and taken out at 0, 5, 15, 30, and 60 min. 600 μL of a methanol solution of mixed positive and negative internal standards with internal standards Terfenadine (positive ion internal standard, 25 ng/mL) and Tolbutamide (negative ion internal standard, 50 ng/mL) was immediately added to terminate the reaction. The incubation solution after termination was shaken for 2 min and centrifuged (4° C., 16000 r/min) for 10 min, and the supernatant was taken for LC-MS/MS detection to quantitatively analyze the remaining amount of the parent drug. (DMSO<0.1%).
The concentration of the compound at 0 min incubation was regarded as 100%, and the concentrations at other incubation time points were converted into the remaining percentages. The natural logarithm of the remaining percentage at each time point was linearly regressed against the incubation time, and the slope k was calculated. According to the formula T1/2=−0.693/k, the in vitro half-life was calculated. Clearance in liver microsomes (CLint (μL/min/mg protein)=Ln (2)*1000/T1/2 (min)/Protein Conc(mg/ml)).
Test data of metabolic stability of the compounds of the present invention in human liver microsomes are listed in detail in table 3: […]

TrkA, sequence (P04629 33-796, species assumed): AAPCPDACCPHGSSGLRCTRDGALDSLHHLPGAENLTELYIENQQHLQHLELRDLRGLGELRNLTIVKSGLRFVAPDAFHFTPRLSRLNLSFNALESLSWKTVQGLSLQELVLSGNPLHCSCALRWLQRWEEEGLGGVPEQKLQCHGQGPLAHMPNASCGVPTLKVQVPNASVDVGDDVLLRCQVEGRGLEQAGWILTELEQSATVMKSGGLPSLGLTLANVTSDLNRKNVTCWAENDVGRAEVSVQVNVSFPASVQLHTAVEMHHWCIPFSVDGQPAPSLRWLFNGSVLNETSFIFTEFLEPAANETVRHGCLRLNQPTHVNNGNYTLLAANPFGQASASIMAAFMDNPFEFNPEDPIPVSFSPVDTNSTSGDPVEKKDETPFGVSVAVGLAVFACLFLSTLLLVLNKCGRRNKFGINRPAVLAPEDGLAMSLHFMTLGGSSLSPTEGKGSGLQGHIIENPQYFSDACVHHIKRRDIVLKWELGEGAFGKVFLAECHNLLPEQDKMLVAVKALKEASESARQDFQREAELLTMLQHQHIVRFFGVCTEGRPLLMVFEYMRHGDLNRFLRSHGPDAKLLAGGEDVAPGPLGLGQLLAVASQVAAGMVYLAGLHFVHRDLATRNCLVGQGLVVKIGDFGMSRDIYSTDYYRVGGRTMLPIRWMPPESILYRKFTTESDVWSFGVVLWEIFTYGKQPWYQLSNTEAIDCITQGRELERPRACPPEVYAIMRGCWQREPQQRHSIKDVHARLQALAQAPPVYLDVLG

IC50 (TrkA): 4.23 nM
IC50 (TrkB): 0.57 nM
IC50 (TrkC): 0.25 nM
GI50 (BaF3-tel-NTRK1): 12 nM
GI50 (BaF3-LMNA-NTRK1): 15.1 nM
Remaining % (60 min) ([1]; human liver microsomes 0.5 mg/mL, compound 1 μmol/L, 37° C., 60 min): 52.26%
Negative control Remaining % (60 min) ([1]; human liver microsomes, negative control incubation, 60 min): 98.1%
half-life at 1 μmol/L ([1]; human, liver microsomes, pH 7.4): 1.11 h
microsomal CLint at 1 μmol/L ([1]; pH 7.4, human liver microsomes 0.5 mg/mL, compound 1 μmol/L, read-out: Clint (μL/min/mg protein)): 20.8 µL/min/mg
Compound: O=C1NN(C2CC2)CCc2ncc(F)cc2[C@H]2CCCN2c2ccn3ncc1c3n2 [Example 1, (R,I^3E,I^4E)-6-cyclopropyl-3^5-fluoro-6,7-diazepine-1(5,3)-pyrazolo[1,5-a]pyrimidine-3(3,2)-pyridine-2(1,2)-pyrrolidine cyclooctane-8-one]
